Columns and labels:
[1] = tested on: Rattus norvegicus; details: oral
[2] = tested on: Rattus norvegicus; details: oral; remark: listed apart in the source
[3] = acute, gavage, M, Wistar, Central Nervous System: Novel object recognition test
[4] = chronic, duration: 110 days, gavage, M, Sprague-Dawley, Adrenal: Progesterone (P4)
[5] = chronic, duration: 110 days, gavage, M, Sprague-Dawley, Kidney: Blood Urea Nitrogen (BUN) + Kidney: Creatinine (CREAT), Blood + Liver: Alkaline Phosphatase (ALP), Blood + Liver: Bile Acids, Blood
[6] = chronic, duration: 110 days, gavage, M, Sprague-Dawley, Liver: Liver Histopathology + Liver: Triglycerides (TRIG), Blood
[7] = chronic, duration: 110 days, gavage, M, Sprague-Dawley, Liver: Total Bilirubin (TBILI), Blood + Whole Body: Body Weight Change (0-110d) + Whole Body: Body Weight Change (60-90d) + Whole Body: Body…
[8] = chronic, duration: 110 days, gavage, M, Sprague-Dawley, Testis: Testes, Non-Neoplastic Lesions + Whole Body: Body Weight, Absolute
[9] = chronic, duration: 110 days, gavage, M, Sprague-Dawley, Testis: Testosterone (T)
[10] = reproduction developmental, duration: 14 days, gavage, F, Crl:CD(SD), generation: P0, P0: Heart: Heart Weight, Absolute + P0: Liver: Liver Weight, Relative + P0: Pituitary: Pituitary Gland Weight, Absolute + P0: Spleen: Spleen…
[11] = reproduction developmental, duration: 42 days, gavage, M, Crl:CD(SD), generation: P0, P0: Adrenal Gland: Adrenal Gland, Atrophy of the cortex + P0: Adrenal: Adrenal Gland Weight, Absolute + P0: Blood: Albumin/Globulin (A/G) …
[12] = reproduction developmental, duration: 42 days, gavage, M, Crl:CD(SD), generation: P0, P0: Liver: Alkaline Phosphatase (ALP) + P0: Liver: Liver Weight, Relative + P0: Protein Fraction, Globulin alpha-2
[13] = short-term, duration: 2 weeks, gavage, M, Sprague-Dawley, Adrenal: Estradiol + Adrenal: Testosterone (T) + Testis: Testes Weight, Relative + Whole Body: Body Weight, Absolute
[14] = short-term, duration: 2 weeks, gavage, M, Sprague-Dawley, Liver: Cholesterol (CHOL), Total + Liver: Triglycerides (TRIG), Liver + Liver: Triglycerides (TRIG), Serum
[15] = short-term, duration: 2 weeks, gavage, M, Sprague-Dawley, Liver: Cholesterol (CHOL), Total + Pituitary: Leuteinizing hormone (LH) + Testis: Testes Weight, Absolute
[16] = short-term, duration: 2 weeks, gavage, M, Sprague-Dawley, Liver: Liver Weight, Absolute + Liver: Liver Weight, Relative
[17] = short-term, duration: 28 days, F, Sprague-Dawley, Multi-Organ: Cholesterol (CHOL), Total + Multi-Organ: Estradiol + Whole Body: Body Weight, Absolute
[18] = chronic, duration: 110 days, gavage, M, Sprague-Dawley, Reproductive: Decreased serum testosterone (44%)
[19] = developmental, duration: 47 days, gavage, M/F, Sprague-Dawley, Body Weight: Decreased body weight gain (20-30%) + Developmental: Decreases in pup body weight (only one litter had live pups) + Endocrine: …
[20] = short-term, duration: 14 days, gavage, M, Sprague-Dawley, Body Weight: 25% reduction in final body weight + Reproductive: Decreased serum testosterone (38%) and estradiol (~38%), and ultrastructural…
[21] = short-term, duration: 28 days, gavage, F, Sprague-Dawley, Endocrine: 40% reduced serum estradiol in pubertal females
[22] = subchronic, duration: 47 days, gavage, F, Sprague-Dawley, Hepatic: Single cell necrosis in females / hepatocellular hypertrophy in males and females at […] / bile duct proliferation at […] in …

Compound `O=C(O)C(F)(F)C(F)(F)C(F)(F)C(F)(F)C(F)(F)C(F)(F)C(F)(F)F` [Perfluorooctanoic acid] has an NOAEL ([1]; acute, duration: 1 days, M, Wistar, Neurological: No alteration in performance on novel object recognition test) of 50 mg/kg-day, an LOAEL ([1]; developmental, duration: 21 days, F, Wistar, Developmental: 17-18% reduced motor coordination and increased locomotor activity in pups on PNDs 34-35) of 1.6 mg/kg-day and an NOAEL ([1]; short-term, duration: 1 weeks, M, Wistar) of 38 mg/kg-day. For the same compound, the NOAEL ([1]; short-term, duration: 1 weeks, M, Wistar, Hepatic: Significant increase in absolute and relative liver weight at ?4.7 mg/kg/day) was 9.5 mg/kg-day, the NOAEL ([1]; short-term, duration: 14 days, M, Sprague-Dawley, Hepatic: 45% increase in relative liver weight) was 20 mg/kg-day and the LOAEL ([1]; short-term, duration: 28 days, M, Sprague-Dawley, Neurological: Cachexia and lethargy) was 5 mg/kg-day.
With `O=C(O)C(F)(F)C(F)(F)C(F)(F)C(F)(F)C(F)(F)C(F)(F)C(F)(F)C(F)(F)C(F)(F)C(F)(F)C(F)(F)F` [Perfluorododecanoic acid] the NOAEL ([2]; acute, gavage, M, Wistar, Brain: Brain Weight, Absolute + Central Nervous System: Elevated platform test (elevated plus test) + Central Nervous System: Forced Swim …) was 50 mg/kg-day, the LOAEL ([2]; acute, gavage, M, Wistar, Brain: Brain Weight, Relative + Central Nervous System: Elevated platform test (elevated plus test) + Central Nervous System: Novel object …) was 50 mg/kg-day and the LOAEL [2, 3] was 20 mg/kg-day. It also gave an NOAEL [2, 3] of 5 mg/kg-day, an LOAEL [2, 4] of 0.2 mg/kg-day and an NOAEL [2, 4] of 0.02 mg/kg-day. For the same compound, the LOAEL [2, 5] was 0.2 mg/kg-day, the NOAEL [2, 5] was 0.05 mg/kg-day and the LOAEL ([2]; chronic, duration: 110 days, gavage, M, Sprague-Dawley, Kidney: Creatine Kinase (CK), Blood + Liver: Albumin (A), Blood + Liver: Liver Weight, Absolute + Liver: Liver Weight, Relative + Liver: Low…) was 0.02 mg/kg-day. The NOAEL ([2]; chronic, duration: 110 days, gavage, M, Sprague-Dawley, Leuteinizing hormone (LH) + Pancreas: Insulin + Pituitary: Follicle stimulating hormone (FSH) + Pituitary: Growth Hormone + Prostate: …) was 0.5 mg/kg-day, the NOAEL ([2]; chronic, duration: 110 days, gavage, M, Sprague-Dawley, Liver: Alanine Aminotransferase (ALT), Blood + Liver: Aspartate Aminotransferase (AST), Blood + Liver: Cholesterol (CHOL), Total, Blood + …) was 0.5 mg/kg-day and the LOAEL [2, 6] was 0.05 mg/kg-day. It also gave an NOAEL [2, 6] of 0.02 mg/kg-day, an LOAEL [2, 7] of 0.5 mg/kg-day and an NOAEL [2, 7] of 0.2 mg/kg-day. The LOAEL [2, 8] was 0.5 mg/kg-day, the NOAEL [2, 8] was 0.2 mg/kg-day and the LOAEL [2, 9] was 0.2 mg/kg-day. For the same compound, the NOAEL [2, 9] was 0.05 mg/kg-day, the NOAEL ([2]; developmental, duration: 14 days, gavage, F, Crl:CD(SD), generation: F1, F1: Whole Body: Body Weight, Fetal, PND0 + F1: Whole Body: Body Weight, Fetal, PND1 + F1: Whole Body: Body Weight, Fetal, PND4) was 0.5 mg/kg-day and the NOAEL ([2]; developmental, duration: 14 days, gavage, M, Crl:CD(SD), generation: F1, F1: Whole Body: Body Weight, Fetal, PND0 + F1: Whole Body: Body Weight, Fetal, PND1 + F1: Whole Body: Body Weight, Fetal, PND4) was 0.5 mg/kg-day. For the same compound, the NOAEL ([2]; reproduction developmental, duration: 14 days, gavage, F, Crl:CD(SD), generation: P0, P0: Adrenal Gland: Adrenal Gland, Atrophy of the cortex + P0: Bone Marrow: Bone Marrow, Decrease in hematopoiesis + P0: Forestomach: …) was 2.5 mg/kg-day, the NOAEL ([2]; reproduction developmental, duration: 14 days, gavage, F, Crl:CD(SD), generation: P0, P0: Adrenal: Adrenal Gland Weight, Absolute + P0: Adrenal: Adrenal Gland Weight, Relative + P0: Blood: Activated Partial Thromboplastin Time…) was 0.5 mg/kg-day and the LOAEL ([2]; reproduction developmental, duration: 14 days, gavage, F, Crl:CD(SD), generation: P0, P0: Blood: Hematocrit (HCT) + P0: Blood: Hematocrit (HCT), Recovery + P0: Blood: Hemoglobin (HGB), Recovery + P0: Blood: Mean Corpuscular …) was 2.5 mg/kg-day. It also gave an LOAEL [2, 10] of 0.5 mg/kg-day, an NOAEL [2, 10] of 0.1 mg/kg-day and an LOAEL ([2]; reproduction developmental, duration: 14 days, gavage, F, Crl:CD(SD), generation: P0, P0: Multi-Organ: Protein Fraction, Albumin) of 0.1 mg/kg-day. It also gave an NOAEL ([2]; reproduction developmental, duration: 14 days, gavage, M/F, Crl:CD(SD), generation: F1, F1: Uterus: Fetuses, Dead + F1: Uterus: Fetuses, Live + F1: Whole Body: Live Birth Index + F1: Whole Body: Live Pups on Lactation Day 4 + F1…) of 0.5 mg/kg-day, an LOAEL [2, 11] of 2.5 mg/kg-day and an NOAEL [2, 11] of 0.5 mg/kg-day. For the same compound, the NOAEL ([2]; reproduction developmental, duration: 42 days, gavage, M, Crl:CD(SD), generation: P0, P0: Adrenal: Adrenal Gland Weight, Relative + P0: Basophils + P0: Blood: Activated Partial Thromboplastin Time (APTT) + P0: Blood: …) was 2.5 mg/kg-day, the LOAEL [2, 12] was 0.5 mg/kg-day and the NOAEL [2, 12] was 0.1 mg/kg-day. The LOAEL [2, 13] was 5 mg/kg-day, the NOAEL [2, 13] was 1 mg/kg-day and the LOAEL [2, 14] was 10 mg/kg-day. The NOAEL [2, 14] was 5 mg/kg-day, the LOAEL [2, 15] was 10 mg/kg-day and the NOAEL [2, 15] was 5 mg/kg-day. For the same compound, the LOAEL [2, 16] was 5 mg/kg-day, the NOAEL [2, 16] was 1 mg/kg-day and the NOAEL ([2]; short-term, duration: 2 weeks, gavage, M, Sprague-Dawley, Pituitary: Follicle stimulating hormone (FSH)) was 10 mg/kg-day. It also gave an NOAEL ([2]; short-term, duration: 28 days, F, Sprague-Dawley, Leuteinizing hormone (LH) + Multi-Organ: Follicle stimulating hormone (FSH) + Ovary: Follicle Count, Antral + Ovary: Follicle Count, …) of 3 mg/kg-day, an LOAEL [2, 17] of 3 mg/kg-day and an NOAEL [2, 17] of 1.5 mg/kg-day. The LOAEL ([1]; acute, duration: 1 days, gavage, M, Wistar, Body Weight: 44% decrease in body weight gain (measured 10-days post-exposure) + Neurological: Impaired performance on novel object …) was 50 mg/kg-day, the NOAEL ([1]; acute, duration: 1 days, gavage, M, Wistar, Neurological: No alterations in open field activity + Neurological: No alterations in tests of working memory or depressive behavior) was 50 mg/kg-day and the NOAEL ([1]; chronic, duration: 110 days, gavage, M, Sprague-Dawley) was 0.5 mg/kg-day. The LOAEL [1, 18] was 0.2 mg/kg-day, the NOAEL [1, 18] was 0.05 mg/kg-day and the LOAEL [1, 19] was 2.5 mg/kg-day. It also gave an NOAEL [1, 19] of 0.5 mg/kg-day, an LOAEL [1, 20] of 5 mg/kg-day and an NOAEL [1, 20] of 1 mg/kg-day. The NOAEL ([1]; short-term, duration: 14 days, gavage, M, Sprague-Dawley, Hepatic: 35% increase in total serum cholesterol at 10 mg/kg/day) was 10 mg/kg-day, the NOAEL ([1]; short-term, duration: 14 days, gavage, M, Sprague-Dawley, Hepatic: Increased liver weight, increased hepatic triglyceride and cholesterol levels at ?5 mg/kg/day / increased serum triglyceride …) was 10 mg/kg-day and the LOAEL [1, 21] was 3 mg/kg-day. The NOAEL [1, 21] was 1 mg/kg-day, the LOAEL ([1]; subchronic, duration: 47 days, gavage, F, Sprague-Dawley, Death: 58% mortality) was 2.5 mg/kg-day and the LOAEL [1, 22] was 2.5 mg/kg-day. It also gave an NOAEL [1, 22] of 0.5 mg/kg-day and an NOAEL ([1]; subchronic, duration: 47 days, gavage, M/F, Sprague-Dawley) of 2.5 mg/kg-day.

From EPA's ToxValDB 9.5
